The conditions of data set [1]: most stable at a pH range; cited from earlier work.
For data set [2] the following is noted: water; cited from earlier work.
Data set [3] is classed as physicochemical. The conditions noted are these: for amount dissolved: ethanol. From the text: The critical features of the solubility of metronidazole, [1-(2-hydroxyethyl)-2-methyl-5-nitroimidazole] are evident from FIGS. 1 through 6.
It is observed that the optimum solubility in water-ethanol mixtures occur at about 80% ethanol.
It is considered desirable to maintain N,N-dimethylacetamide concentrations in any formulation at a relatively low level. In FIG. 2, it is shown that 20% N,N-dimethylacetamide is not a suitable solvent system in combination with water or ethanol alone. Those satisfied with less desirable formulation could use a solvent system of 20% N,N-dimethylacetamide, 40% water, and 40% ethanol. […] One would also believe this for combinations of 30% N,N-dimethylacetamide and water and ethanol.
It can be observed from FIG. 3 that, unexpectedly, a solvent system of 30% N,N-dimethylacetamide in combination with the indicated proportions of ethanol and water solubilizes more than 500 mg./10 ml. of metronidazole.
Also, unexpectedly, FIGS. 4, 5 and 6 illustrate that the combination of ethanol, water and N,N-dimethylacetamide can be made to dissolve more than 500 mg. of metronidazole by the addition of nicotinamide, propylene glycol or 2,2-dimethyl-1,3-dioxolane-4-methanol. These systems have the advantages of an even lower percentage composition of N,N-dimethylacetamide. Optimum systems and the solubility of metroinidazole therein are illustrated in Table 1.

Data on one molecule can be found in US4032645A, “Injectable metronidazole composition” (G. D. Searle & Co., priority 1975, dated 1977).

Where two headings read alike, the source gives them in different places.

Take `Cc1ncc([N+](=O)[O-])n1CCO` [metronidazole, 1-(2-hydroxyethyl)-2-methyl-5-nitroimidazole]: in data set [1], the “pH range of greatest stability” value is reported as 5.0-7.5. In addition, the aqueous solubility result in data set [2] is “about 100 mg./10 ml”. Also, the “ethanol content at optimum solubility in water-ethanol mixtures” value in data set [3] is reported as “about 80%”. In addition, the solubility entry in data set [3] is “more than 500 mg./10 ml”. Further, the amount dissolved result in data set [3] (water and N,N-dimethylacetamide with addition of 2,2-dimethyl-1,3-dioxolane-4-methanol (FIG. 5)) is reported as “more than 500 mg”; in data set [3] (water and N,N-dimethylacetamide with addition of nicotinamide (FIG. 6)) it was “more than 500 mg”; in data set [3] (water and N,N-dimethylacetamide with addition of propylene glycol (FIG. 4)), “more than 500 mg”.
